Measurements published in ChEMBL document CHEMBL4480422, “Alkyl derivatives of 1,3,5-triazine as histamine H4 receptor ligands” (Bioorg Med Chem, 2019).
Activity calls are given as the source filed them.

Legend:
Histamine H4 receptor [1] = molecular target: T1, Histamine H4 receptor (Homo sapiens, UniProt Q9H3N8); assay: Displacement of [3H]-histamine from recombinant human H4 receptor expressed in Sf9 cell membranes co-expressing Galphai2/Gbeta1gamma2
Mus musculus [2] = assay: (§1) Antinociceptive activity in formalin-induced nociception pain Albino Swiss CD-1 mouse model assessed as reduction in time spent licking or biting formalin injected right hind paw in early phase at 25 mg/kg, ip pretreated followed by formalin injection and measured up to 5 mins; format: functional, organism-based
Mus musculus [3] = assay: as §1, with “in inflammatory” for “in early”, “measured after 15” for “measured up”, “to 30” for “to 5”, “mins relative to control” for “mins”; format: functional; parameters: scale not given: the % may be the effect or the level left
Rattus norvegicus [4] = assay: Anti-inflammatory activity in Wistar (Krf:(WI) WU) rat model of carrageenan-induced mechanical hyperalgesia assessed as increase in paw withdrawal threshold at 25 mg/kg, ip administered as single dose prior to carrageenan challenge and measured after 3 hrs; format: functional, organism-based
Rattus norvegicus [5] = assay: Anti-inflammatory activity in Wistar (Krf:(WI) WU) rat model of carrageenan-induced thermal hyperalgesia assessed as paw withdrawal latency time at 25 mg/kg, ip administered as single dose prior to carrageenan challenge and measured after 2 hrs by plantar test (reference value: 4.03 +/- 0.7 s); format: functional
Rattus norvegicus [6] = assay: Anti-inflammatory activity in Wistar (Krf:(WI) WU) rat model of carrageenan-induced paw edema assessed as hind paw volume at 25 mg/kg, ip administered as single dose prior to carrageenan challenge and measured after 3 hrs by plethysmometer (reference value: 130%); format: functional
Rattus norvegicus [7] = assay: Anti-inflammatory activity in Wistar (Krf:(WI) WU) rat model of carrageenan-induced paw edema assessed as hind paw volume at 25 mg/kg, ip administered as single dose prior to carrageenan challenge and measured after 2 hrs by plethysmometer (reference value: 103%); format: functional
Rattus norvegicus [8] = assay: Anti-inflammatory activity in Wistar (Krf:(WI) WU) rat model of carrageenan-induced paw edema assessed as hind paw volume at 25 mg/kg, ip administered as single dose prior to carrageenan challenge and measured after 1 hr by plethysmometer (reference value: 49%); format: functional
Rattus norvegicus [9] = assay: Anti-inflammatory activity in Wistar (Krf:(WI) WU) rat model of carrageenan-induced thermal hyperalgesia assessed as paw withdrawal latency time at 25 mg/kg, ip administered as single dose prior to carrageenan challenge and measured after 1 hr by plantar test (reference value: 4.79 +/- 0.99 s); format: functional
Histamine H4 receptor [10] = molecular target: T1, Histamine H4 receptor; assay: Agonist activity at recombinant human H4 receptor expressed in CHOK1 cells co-expressing Galpha16/aequorin assessed as increase in intracellular calcium flux incubated for 1 hr measured for 30 secs in presence of coelenterazine by luminescence assay; format: functional, cell-based
Histamine H4 receptor [11] = molecular target: T1, Histamine H4 receptor; assay: Antagonist activity at recombinant human H4 receptor expressed in CHOK1 cells co-expressing Galpha16/aequorin assessed as inhibition of histamine-induced intracellular calcium flux preincubated for 30 mins followed by histamine addition and measured for 30 secs in presence of coelenterazine by luminescence assay; format: functional, cell-based
[12] = molecular target: Histamine H1 receptor (Cavia porcellus) (UniProt P31389); assay: Agonist activity at histamine H1 receptor in guinea-pig ileum assessed as induction of contractions after 15 mins; format: tissue-based
Chain of Histamine H1 receptor (Cavia porcellus) (P31389 whole entry): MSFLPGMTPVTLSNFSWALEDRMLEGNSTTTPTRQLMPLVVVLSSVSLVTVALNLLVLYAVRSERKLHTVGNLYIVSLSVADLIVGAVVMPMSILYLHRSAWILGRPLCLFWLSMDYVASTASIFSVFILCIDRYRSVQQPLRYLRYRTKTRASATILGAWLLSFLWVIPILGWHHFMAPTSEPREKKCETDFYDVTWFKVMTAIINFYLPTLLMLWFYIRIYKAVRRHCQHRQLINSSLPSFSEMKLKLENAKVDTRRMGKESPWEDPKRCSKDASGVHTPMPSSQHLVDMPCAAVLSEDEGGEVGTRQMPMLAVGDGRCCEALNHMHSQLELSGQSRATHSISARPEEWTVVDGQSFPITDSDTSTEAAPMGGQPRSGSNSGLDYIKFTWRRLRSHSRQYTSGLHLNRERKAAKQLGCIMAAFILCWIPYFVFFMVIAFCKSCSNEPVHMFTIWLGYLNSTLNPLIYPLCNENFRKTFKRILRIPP

Histamine H4 receptor [13] = molecular target: T1, Histamine H4 receptor; conditions: Sf9
Rattus norvegicus [14] = assay: Anti-inflammatory activity in Wistar (Krf:(WI) WU) rat model of carrageenan-induced thermal hyperalgesia assessed as paw withdrawal latency time at 50 mg/kg, ip administered as single dose prior to carrageenan challenge and measured after 1 hr by plantar test (reference value: 4.79 +/- 0.99 s); format: functional
Mus musculus [15] = assay: as §1, with “inflammatory” for “early”, “50” for “25”, “after 15” for “up”, “30” for “5”, “mins relative to control” for “mins”; format: functional; parameters: scale not given: the % may be the effect or the level left
Rattus norvegicus [16] = assay: Anti-inflammatory activity in Wistar (Krf:(WI) WU) rat model of carrageenan-induced paw edema assessed as hind paw volume at 12.5 mg/kg, ip administered as single dose prior to carrageenan challenge and measured after 1 hr by plethysmometer (reference value: 49%); format: functional
Mus musculus [17] = assay: Antinociceptive activity in formalin-induced nociception pain Albino Swiss CD-1 mouse model assessed as reduction in time spent licking or biting formalin injected right hind paw in early phase at 75 mg/kg, ip pretreated followed by formalin injection and measured up to 5 mins; format: functional, organism-based
Rattus norvegicus [18] = assay: Anti-inflammatory activity in Wistar (Krf:(WI) WU) rat model of carrageenan-induced paw edema assessed as hind paw volume at 50 mg/kg, ip administered as single dose prior to carrageenan challenge and measured after 2 hrs by plethysmometer (reference value: 103%); format: functional
Rattus norvegicus [19] = assay: Anti-inflammatory activity in Wistar (Krf:(WI) WU) rat model of carrageenan-induced paw edema assessed as reduction in hind paw volume administered as single ip dose prior to carrageenan challenge and measured after 1 to 3 hrs by plethysmometer; format: functional, organism-based
Mus musculus [20] = assay: Antinociceptive activity in ip dosed formalin-induced nociception pain Albino Swiss CD-1 mouse model assessed as reduction in time spent licking or biting formalin injected right hind paw in inflammatory phase pretreated followed by formalin injection and measured after 15 to 30 mins; format: functional; conditions: Swiss CD-1, ip
Rattus norvegicus [21] = assay: Anti-inflammatory activity in Wistar (Krf:(WI) WU) rat model of carrageenan-induced paw edema assessed as hind paw volume at 12.5 mg/kg, ip administered as single dose prior to carrageenan challenge and measured after 2 hrs by plethysmometer (reference value: 103%); format: functional
Mus musculus [22] = assay: Effect on spontaneous locomotor activity in Albino Swiss CD-1 mouse assessed as change in number of light beam crossings at 25 to 50 mg/kg, ip treated prior to test and measured for next 30 mins; format: ADME, organism-based; conditions: in vivo, 0.5 h
Rattus norvegicus [23] = assay: Anti-inflammatory activity in Wistar (Krf:(WI) WU) rat model of carrageenan-induced thermal hyperalgesia assessed as paw withdrawal latency time at 50 mg/kg, ip administered as single dose prior to carrageenan challenge and measured after 3 hrs by plantar test (reference value: 3.03 +/- 0.4 s); format: functional
Rattus norvegicus [24] = assay: Anti-inflammatory activity in Wistar (Krf:(WI) WU) rat model of carrageenan-induced paw edema assessed as hind paw volume at 12.5 mg/kg, ip administered as single dose prior to carrageenan challenge and measured after 3 hrs by plethysmometer (reference value: 130%); format: functional
[25] = Neurotoxicity in Albino Swiss CD-1 mouse assessed as motor impairment at 25 to 75 mg/kg, ip treated 30 mins prior to test by rotarod test; format: toxicity, organism-based; conditions: in vivo, 0.5 h
Histamine H4 receptor [26] = molecular target: T1, Histamine H4 receptor; assay: Agonist activity at recombinant human H4 receptor expressed in Sf9 cell membranes co-expressing Galphai2/Gbeta1gamma2 measured after 1 hr in presence of [35S]GTPgammaS by liquid scintillation counting method; format: functional
Rattus norvegicus [27] = assay: Anti-inflammatory activity in Wistar (Krf:(WI) WU) rat model of carrageenan-induced mechanical hyperalgesia assessed as increase in paw withdrawal threshold at 12.5 to 50 mg/kg, ip administered as single dose prior to carrageenan challenge and measured after 3 hrs; format: functional, organism-based
Rattus norvegicus [28] = assay: Anti-inflammatory activity in Wistar (Krf:(WI) WU) rat model of carrageenan-induced paw edema assessed as hind paw volume at 50 mg/kg, ip administered as single dose prior to carrageenan challenge and measured after 1 hr by plethysmometer (reference value: 49%); format: functional
Rattus norvegicus [29] = assay: Anti-inflammatory activity in Wistar (Krf:(WI) WU) rat model of carrageenan-induced paw edema assessed as hind paw volume at 50 mg/kg, ip administered as single dose prior to carrageenan challenge and measured after 3 hrs by plethysmometer (reference value: 130%); format: functional
[30] = molecular target: T2, Muscarinic acetylcholine receptor M3 (Cavia porcellus, UniProt Q8VH26); assay: Antagonist activity at muscarinic M3 receptor in guinea-pig ileum assessed as inhibition of carbachol-induced contractions after 15 mins; format: tissue-based; conditions: read-out: pA2 (converted)
T2 sequence (Q8VH26 whole entry): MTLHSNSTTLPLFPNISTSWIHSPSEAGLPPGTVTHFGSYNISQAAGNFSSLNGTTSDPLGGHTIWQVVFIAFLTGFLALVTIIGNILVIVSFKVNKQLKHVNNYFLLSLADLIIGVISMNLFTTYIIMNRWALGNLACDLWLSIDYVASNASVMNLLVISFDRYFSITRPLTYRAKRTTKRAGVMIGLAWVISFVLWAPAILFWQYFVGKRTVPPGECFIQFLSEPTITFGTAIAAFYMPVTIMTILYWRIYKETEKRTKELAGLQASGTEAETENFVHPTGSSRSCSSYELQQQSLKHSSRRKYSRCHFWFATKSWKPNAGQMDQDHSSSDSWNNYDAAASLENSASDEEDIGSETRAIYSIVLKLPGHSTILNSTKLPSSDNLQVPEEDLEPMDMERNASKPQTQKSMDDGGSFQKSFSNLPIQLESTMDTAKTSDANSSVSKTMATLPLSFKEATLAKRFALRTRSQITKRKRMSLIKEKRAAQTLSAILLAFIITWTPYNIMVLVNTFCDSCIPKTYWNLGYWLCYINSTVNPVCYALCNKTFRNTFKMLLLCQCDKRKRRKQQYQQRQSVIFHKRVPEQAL

Mus musculus [31] = assay: Effect on spontaneous locomotor activity in Albino Swiss CD-1 mouse assessed as decrease in number of light beam crossings at 75 mg/kg, ip treated prior to test and measured for next 30 mins relative to control; format: ADME, organism-based; parameters: scale not given: the % may be the effect or the level left; conditions: in vivo, 0.5 h
Rattus norvegicus [32] = assay: Anti-inflammatory activity in Wistar (Krf:(WI) WU) rat model of carrageenan-induced thermal hyperalgesia assessed as paw withdrawal latency time at 50 mg/kg, ip administered as single dose prior to carrageenan challenge and measured after 2 hrs by plantar test (reference value: 4.03 +/- 0.7 s); format: functional
Histamine H1 receptor = Histamine H1 receptor (Cavia porcellus, UniProt P31389); assay: Antagonist activity at histamine H1 receptor in guinea-pig ileum assessed as inhibition of histamine-induced contractions after 15 mins; format: tissue-based; conditions: read-out: pA2 (converted)
Chain of Histamine H1 receptor (P31389 whole entry): as the sequence (P31389 whole entry) above

[33] = molecular target: T2, Muscarinic acetylcholine receptor M3; assay: Agonist activity at muscarinic M3 receptor in guinea-pig ileum assessed as induction of contractions after 15 mins; format: tissue-based; conditions: 0.25 h
Rattus norvegicus [34] = assay: Anti-inflammatory activity in Wistar (Krf:(WI) WU) rat model of carrageenan-induced thermal hyperalgesia assessed as paw withdrawal latency time at 25 mg/kg, ip administered as single dose prior to carrageenan challenge and measured after 3 hrs by plantar test (reference value: 3.03 +/- 0.4 s); format: functional

T1 sequence (Q9H3N8 whole entry): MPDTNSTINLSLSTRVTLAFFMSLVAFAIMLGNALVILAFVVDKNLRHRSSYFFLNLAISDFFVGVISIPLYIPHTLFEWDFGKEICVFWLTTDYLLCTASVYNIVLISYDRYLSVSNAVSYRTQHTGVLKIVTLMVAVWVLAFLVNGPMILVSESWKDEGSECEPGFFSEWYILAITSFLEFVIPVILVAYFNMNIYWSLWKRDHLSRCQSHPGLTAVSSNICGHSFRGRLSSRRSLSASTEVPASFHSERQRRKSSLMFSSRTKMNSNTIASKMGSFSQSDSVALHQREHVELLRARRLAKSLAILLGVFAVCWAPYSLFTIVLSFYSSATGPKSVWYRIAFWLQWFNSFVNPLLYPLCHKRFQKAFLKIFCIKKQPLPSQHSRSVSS

SMILES: CN1CCN(c2nc(N)nc(CCC3CCCCC3)n2)CC1
- Ki (Histamine H4 receptor [1]): 2850 nM

SMILES: CN1CCN(c2nc(N)nc(CCCC3CCCCC3)n2)CC1
- Ki (Histamine H4 receptor [1]): > 10000 nM

SMILES: COCc1nc(N)nc(N2CCN(C)CC2)n1
- Ki (Histamine H4 receptor [1]): > 10000 nM

SMILES: CCC(CC)c1nc(N)nc(N2CCN(C)CC2)n1
- Ki (Histamine H4 receptor [1]): 1330 nM

SMILES: CCc1nc(N)nc(N2CCN(C)CC2)n1
- Ki (Histamine H4 receptor [1]): 812 nM

SMILES: CN1CCN(C(=O)c2cc3cc(Cl)ccc3[nH]2)CC1 [JNJ-7777120]
- Activity (Mus musculus [2]): inactive
- Activity (Mus musculus [3]): 60.68%
- Activity (Rattus norvegicus [4]): Active
- Time (Rattus norvegicus [5]): 8.39 s
- Activity (Rattus norvegicus [6]): 63.66%
- Activity (Rattus norvegicus [7]): 47.4%
- Activity (Rattus norvegicus [8]): 22.11%
- Time (Rattus norvegicus [9]): 9.14 s

SMILES: CC(C)=Cc1nc(N)nc(N2CCN(C)CC2)n1
- Ki (Histamine H4 receptor [1]): 470 nM

SMILES: CCC(C)c1nc(N)nc(N2CCN(C)CC2)n1 (stereo not given)
- Ki (Histamine H4 receptor [1]): 725 nM

SMILES: CN1CCN(c2nc(N)nc(C(C)(C)C)n2)CC1
- Ki (Histamine H4 receptor [1]): 1080 nM

SMILES: CN1CCN(c2nc(N)nc(CC(C)(C)C)n2)CC1
- Ki (Histamine H4 receptor [1]): 247 nM

SMILES: Cc1nc(N)nc(N2CCN(C)CC2)n1
- Ki (Histamine H4 receptor [1]): 2660 nM

SMILES: CC(C)Cc1nc(N)nc(N2CCN(C)CC2)n1
- Ki (Histamine H4 receptor [1]): 529 nM

SMILES: CCCc1nc(N)nc(N2CCN(C)CC2)n1
- Ki (Histamine H4 receptor [1]): 185 nM
- Activity (Histamine H4 receptor [10]): inactive
- IC50 (Histamine H4 receptor [11]): 265 nM

SMILES: CC(C)c1nc(N)nc(N2CCN(C)CC2)n1
- Ki (Histamine H4 receptor [1]): 277 nM

SMILES: CN1CCN(c2nc(N)nc(CC3CCCCC3)n2)CC1
- Activity [12]: inactive
- pKb (Histamine H4 receptor [13]): 6.67 to 6.7
- Time (Rattus norvegicus [14]): 9.43 s
- Activity (Mus musculus [15]): 59.83%
- Ki (Histamine H4 receptor [1]): 160 nM
- Activity (Rattus norvegicus [16]): 25.47%
- Activity (Mus musculus [17]): Active
- Activity (Rattus norvegicus [18]): 21.73%
- Activity (Rattus norvegicus [19]): Dose-dependent effect
- ED50 (Mus musculus [20]): 54.8 mg/kg
- Activity (Rattus norvegicus [21]): 53.77%
- Activity (Mus musculus [22]): Non-Toxic
- Time (Rattus norvegicus [23]): 9.03 s
- Activity (Rattus norvegicus [24]): 83.96%
- Activity [25]: Non-Toxic
- Activity (Histamine H4 receptor [26]): inactive
- Time (Rattus norvegicus [5]): 9.78 s
- Activity (Rattus norvegicus [27]): Active
- Activity (Rattus norvegicus [28]): 8.69%
- Activity (Rattus norvegicus [29]): 57.37%
- Kb [30]: 2040 nM
- Activity (Histamine H4 receptor [10]): inactive
- Activity (Mus musculus [31]): 23.84%
- Activity (Rattus norvegicus [6]): 84.3%
- IC50 (Histamine H4 receptor [11]): 32 nM
- Activity (Rattus norvegicus [7]): 41.3%
- Activity (Rattus norvegicus [8]): 19.56%
- Time (Rattus norvegicus [32]): 10.05 s
- Kb (Histamine H1 receptor): 1230 nM
- Activity [33]: Not Active
- Time (Rattus norvegicus [9]): <=10.49 s
- Time (Rattus norvegicus [34]): 7.06 s
